Target: p38 map kinase (Homo sapiens, UniProt Q16539)
Assay: P38 map kinase assay (SPA)
Type: biochemical
Conditions: SPA [33-P] assay, biotinylated myelin basic protein substrate 2.5 μM, 10 μM ATP, 90 min 30° C.
Description: The assay makes use of the serine/threonine protein kinase SPA [33-P]+assay kit from Amersham Pharmacia Biotech. The assay is a homogeneous technique using SPA technology for the quantification of serine threonine kinase activity.
It is based on the p38 map kinase catalysed transfer of the γ-phosphate group of the [γ-^33P] ATP to the substrate, biotinylated myelin basic protein (MBP). The resulting [^33P]-labelled biotinylated product is trapped on a PVT SPA bead containing scintillant which has been surface coated with streptavidin.
The beads are allowed to settle to eliminate high background, and therefore only ^33P labelled product attached to the SPA bead is detected.
The assay is carried out in the presence and absence of test compounds to determine their effect on p38 map kinase activity.
A Test Protocol is as Follows:
• 1. SPA assay kit (Amersham). Components: • Assay buffer (store frozen) • Stop solution (store frozen) • Streptavidin coated SPA beads—reconstitute with 5 mls of PBS. (50 mg/ml). (Store in fridge) • 2. p38 map kinase enzyme SCRD (500 μg/ml)−aliquoted in 1.5 mls. • dilute 1:10 to 50 μg/ml • 1 plate: −110 μl (stock 500 μg/ml)+[…] PBS. • 3. Assay reagent: • for 1 plate: −504 μl Assay buffer (500 Mm MOPS pH7.2, 10 μM ATP, • 50 mM MgCl2, 25 μM biotinylated myelin basic protein (MBP)). • 2513.4 μl Water • 1.1 μl 33-p-ATP ([…]) (on activity date/adjust for activity date) • 4.534 μl×10^-2M ATP in water • 4. Stop solution: • for 1 plate: −265.92 μl streptavidin coated beads (50 mg/ml) • 1651.68 μl stop buffer (500 μM ATP, 50 mM EDTA 1% Triton X-100) • 7084.32 μl PBS. • 1. Add 10 μcompound Dilutions (5× final conc) Test wells. • 2. Add 10 μl 12.5% DMSO to control/blank wells. • 3. Add 10 μl enzyme (50 μg/ml)−final conc 500 ng/well • 4. Add 10 μPBS to blank wells. • 5. Add 30 μL of assay reagent to each well. (final conc 10 μM ATP, 2.5 μM substrate) • 6. Mix well on plate shaker • 7. Incubate 90 min (30° C.) • 8. Add 75 μl of stop solution to each well (final conc 55 μM ATP) • 9. Spin plate: −3 min/1600 rpm/20° C. (alternatively leave to settle overnight) • 10. Read in Microbeta, Protocol SPA paralux 3.

Chain of p38 map kinase (Q16539 whole entry): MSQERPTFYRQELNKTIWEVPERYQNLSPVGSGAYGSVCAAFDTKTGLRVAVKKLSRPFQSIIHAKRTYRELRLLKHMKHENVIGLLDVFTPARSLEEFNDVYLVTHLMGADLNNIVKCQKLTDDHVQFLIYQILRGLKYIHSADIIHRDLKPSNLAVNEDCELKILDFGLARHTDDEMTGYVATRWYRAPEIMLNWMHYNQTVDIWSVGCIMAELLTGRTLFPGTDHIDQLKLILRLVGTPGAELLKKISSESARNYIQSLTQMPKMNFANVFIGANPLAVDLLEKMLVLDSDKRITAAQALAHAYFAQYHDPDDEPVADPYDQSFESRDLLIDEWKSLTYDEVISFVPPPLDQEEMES

| SMILES | IC50 |
| --- | --- |
| O=C(c1ccccc1)c1ccc(=O)n2c1[nH]c1ccccc12 [Example 1, 4-Benzoylpyrido[1,2-a]benzimidazol-1(5H)-one] | 518 nM |
| Cc1[nH]c2c(C(=O)c3ccc(F)cc3)ccc(=O)n2c1C [Example 2, 8-(4-Fluorobenzoyl)-2,3-dimethylimidazo[1,2-a]pyridin-5(1H)-one] | 329 nM |
| Cc1[nH]c2c(C(=O)c3ccccc3F)ccc(=O)n2c1C [Example 3, 8-(2-Fluorbenzoyl)-2,3-dimethylimidazo[1,2-a]pyridin-5(1H)-one] | 235 nM |
| O=C(c1ccccc1)c1ccc(=O)n2c3c([nH]c12)CCCC3 [Example 5, 4-Benzoyl-6,7,8,9-tetrahydropyrido[1,2-a]benzimidazol-1(5H)-one] | 111 nM |
| O=C(c1ccc(F)cc1F)c1ccc(=O)n2c3c([nH]c12)CCCC3 [Example 38, 4-(2,4-Difluorobenzoyl)-6,7,8,9-tetrahydropyrido[1,2-a]benzimidazol-1(51)-one] | 96 nM |

Reference: patent US6984646B2, “Imidazopyridinones as p38 map kinase inhibitors” (Bayer Healhcare AG, priority 2001, dated 2006)
